{
  "source": "paper PMC13485499",
  "about": "“Neoliensinine promotes lysosomal cell death in T cell malignancies via a novel STING-TUBA1B pathway” (Genes & Diseases, 2025)",
  "target": "T1, Stimulator of interferon genes (STING) (Homo sapiens, UniProt Q86WV6)",
  "T1 construct": "gene STING1",
  "T1 sequence (Q86WV6 whole entry)": "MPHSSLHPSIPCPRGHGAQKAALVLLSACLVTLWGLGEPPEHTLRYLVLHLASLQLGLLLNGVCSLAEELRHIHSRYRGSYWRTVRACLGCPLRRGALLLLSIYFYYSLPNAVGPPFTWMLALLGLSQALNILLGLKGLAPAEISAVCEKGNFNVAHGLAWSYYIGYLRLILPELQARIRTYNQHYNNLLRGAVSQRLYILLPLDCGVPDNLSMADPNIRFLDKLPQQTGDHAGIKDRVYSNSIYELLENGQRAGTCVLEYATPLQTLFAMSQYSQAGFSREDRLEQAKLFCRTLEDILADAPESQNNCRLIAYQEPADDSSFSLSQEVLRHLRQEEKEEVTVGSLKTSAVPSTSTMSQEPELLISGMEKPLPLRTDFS",
  "assay": "DARTS in Jurkat and Hut102 cell lysates ([…]); weaker than NeoL",
  "assay_type": "cell-based",
  "data": [
    {"smiles": "COc1ccc(C[C@@H]2c3cc(Oc4cc(C[C@@H]5c6cc(O)c(OC)cc6CCN5C)ccc4O)c(OC)cc3CCN2C)cc1", "note": "[IsoL, isoliensinine]", "values": [
      {"measurement": "DARTS in Jurkat and Hut102 cell lysates (80 μmol/L); weaker than NeoL", "result": "incubation with NeoL and IsoL led to increased STING in the Jurkat and Hut102 cell lysates"}
    ]}
  ]
}
